{"source": "patent US6828106B2", "about": "“Methods and compositions using coiled binding partners” (Cyclacel Limited, priority 1999, dated 2004)", "key": {"TEV protease [1]": {"target": "T1, TEV protease (Tobacco etch virus, UniProt P04517)", "T1 construct": "Proteolytic cleavage was initiated by the addition of TEV protease (20U, Gibco Life Technologies); histidine tag; purchased Gibco Life Technologies", "T1 sequence (P04517 2038-2279)": "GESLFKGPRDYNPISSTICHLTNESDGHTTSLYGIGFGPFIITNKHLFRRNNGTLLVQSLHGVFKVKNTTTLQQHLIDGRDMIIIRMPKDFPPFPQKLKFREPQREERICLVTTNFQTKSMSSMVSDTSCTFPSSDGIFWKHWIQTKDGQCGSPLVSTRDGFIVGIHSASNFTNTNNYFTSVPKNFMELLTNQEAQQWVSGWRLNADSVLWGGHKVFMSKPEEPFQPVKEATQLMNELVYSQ", "experiment": "TEV protease FRET assay with homodimer-forming reporter peptide", "format": "biochemical", "conditions": "0.05-100 mM iodacetamide added prior to TEV protease; 6 μM reporter peptide, 30° C.; FIG. 9; read-out: IC50 value (TEV protease inhibitor iodacetamide) as determined by FRET analysis", "description": "(§1) TEV protease activity and inhibition of TEV protease activity was determined by using a peptide capable of forming a homodimer, wherein homodimer formation is decreased following TEV protease cleavage of the peptide, according to the following method.\nFor FRET analysis the reporter peptide (KGR MRCLEDR VENLYSQ SYHLENE VARLRRL VGELAAK) (SEQ ID NO: 32) was labeled with fluorescein or rhodamine. The labeled peptides were incubated at a total peptide concentration of 6 μM (6:1 ratio, R:F) in 50 mM Tris pH 8, and 0.5 mM EDTA, and 1 mM DTT at 30° C. for 15 minutes in a total volume of 100 μl. Proteolytic cleavage was initiated by the addition of TEV protease (20U, Gibco Life Technologies), and monitored during the time course of the reaction by measuring the emission of fluorescein (excitation 485 nm, emission 520 nm) over time. Initial rates of change of fluorescein emission were determined for the linear portion of the reaction.\n(§2) The activity of the TEV protease inhibitor iodacetamide was determined by FRET or FP assays performed as described above in the absence of iodacetamide or in the presence of 0.05-100 mM iodacetamide added prior to the addition of TEV protease. The results of these experiments are presented in FIG. 9 (FRET assay) and FIG. 11 (FP assay)."}, "TEV protease [2]": {"target": "T1, TEV protease", "experiment": "TEV protease FP assay with homodimer-forming reporter peptide", "format": "biochemical", "conditions": "0.05-100 mM iodacetamide added prior to TEV protease; 6 μM reporter peptide, 30° C.; read-out: IC50 value (TEV protease inhibitor iodacetamide) as determined by FP analysis", "description": "as §1\nFor FP analysis the reporter peptide (sequence recited above) was labeled with fluorescein or with biotin. The labeled peptides were incubated at a total peptide concentration of 6 μM (6:1 ratio, biotin:F) in 50 mM Tris, pH 8, 0.5 mM EDTA, 0.1 mg/ml BSA and 1 mM DTT at 30° C. for 5 minutes in a total volume of 100 μl. Proteolytic cleavage was initiated by the addition of TEV protease (20U), and monitored during the reaction time course by measuring the polarization of fluorescein (excitation 485 nm, emission 520 nm) over time. Initial rates of change of fluorescein polarization were determined for the linear portion of the reaction.\nas §2"}}}
{"smiles": "NC(=O)CI", "note": "[iodacetamide, reference compound]", "values": [{"measurement": "IC50", "setting": "TEV protease [1]", "value": 885, "unit": "µM"}, {"measurement": "IC50", "setting": "TEV protease [2]", "value": 1000, "unit": "µM"}]}
